This is an account of results in US9902986B2, “Enterobactin conjugates and uses thereof” (Massachusetts Institute of Technology, priority 2013, dated 2018).

Data set [1] has as its system human colon epithelial T84 cells. As to the kind of experiment: Cytotoxicity study using MTT. Conditions: 24 h; for effect on viability of T84 cells (MTT): concentrations up to 10 μM. As for the experimental part:
Colon epithelial T84 cell line (purchase from ATCC) were grown in DMEM/F12 medium containing penicillin (100 I.U./mL) and streptomycin (100 μg/mL). The cells were passed and plated in 96-well flat-bottom plates ˜16 h before treatment. Each well contained 90 µL of the cell culture at a density of 10^5 cells/mL. Stock solutions of the tested conjugates (e.g., Ent-Amp) were prepared in sterile filtered 10% DMSO/water, and 10 μL of the each solution was added to each well. The plate was incubated at 37° C. and under 5% CO2 for 24 h and 20 μL of MTT (5 mg/mL in sterile PBS) was added to each well. The plate was incubated at 37° C. for another 4 h, and the supernatant was removed from each well. DMSO (100 μL) was added to the wells to afford a purple solution, and the absorbance at 550 nm was recorded by using a plate reader. Blank readings were generated by wells that only contain the growth medium but no cells. The assay was repeated in three independent trials, and the resulting mean and standard errors are reported. […] Ent-Amp, Ent, and Amp were incubated with human colon epithelial T84 cells for 24 h.
In another exemplary experiment, the human colon epithelial T84 cell line was purchased from ATCC and cultured in 1:1 DMEM/F12 medium with 10% fetal bovine serum, 1% penicillin, and streptomycin (v/v, ATCC). The cells were grown to approximately 95% confluency and treated with 3 mL of trypsin-EDTA (Corning). A 12-mL portion of fresh medium was added to the detached cells, and the T84 cell suspension was centrifuged (600 rpm×5 min, 37° C.). The supernatant was discarded, and the cell pellet was resuspended in 6 mL of the fresh culture media. The concentration of cells was quantified by using a manual hemocytometer (VWR International) and adjusted to 1×10^5 cells/mL. A 90-μL aliquot of T84 cells were then added to 96-well plates and incubated at 37° C. and 5% CO2 for 24 h. […] DMSO (100 μL) was added to each well and the absorbance at 550 nm was recorded by using a plate reader. Blank readings were recorded on wells that only contained the medium. […]

The subject of data set [2] is E. coli ATCC 33475 (ent-). Type of data set: cell-based, Escherichia coli. The conditions noted are these: 10 μM. As for the experimental part: (§1) General microbiology methods are as described herein or according to processes known in the art. […] Bacterial growth was assayed by measuring OD600 using a BioTek Synergy HT plate reader. Each well condition was prepared in duplicate and three independent replicates of each assay were conducted on different days. The resulting mean OD600 are reported and the error bars are the standard deviation of the mean obtained from the three independent replicates.
(§2) Three non-pathogenic E. coli strains were employed that are defective in enterobactin synthesis, enterobactin transport, or ferric enterobactin utilization in growth recovery assays. E. coli ATCC 33475 (ent-) cannot biosynthesize enterobactin, but retains the capacity to import and metabolize the siderophore.^71 E. coli H1187 (fepA-) lacks the outer membrane enterobactin receptor. E. coli K-12 JW0576 (fes-) can accumulate ferric enterobactin, but cannot release the iron because it is deficient in the enterobactin esterase Fes. As a result of these defects in iron metabolism, all three strains grow poorly under conditions of iron limitation.^71 The iron chelator 2,2′-dipyridyl (dipyridyl, DP) was used to generate iron-deficient conditions and promote expression of siderophore transport machinery in the growth recovery assays.

In data set [3] the test system is P. aeruginosa K648 (pvd-, pch-). Type of data set: cell-based, Pseudomonas aeruginosa. As for the experimental part:
as §1
(§3) It was next sought to determine whether the enterobactin-cargo conjugates provided growth recovery for Pseudomonas aeruginosa PAO1. This Gram-negative opportunistic human pathogen synthesizes and exports two siderophores, pyoverdine (pvd) and pyochelin (pch), and employs multiple additional mechanisms for iron acquisition.^72,73 P. aeruginosa utilizes enterobactin as a xenosiderophore, and the genes pfeA^74,75 and pirA^76 encode outer membrane enterobactin transporters. Similar to the E. coli experiments, P. aeruginosa strains deficient in siderophore production or utilization were used in growth recovery assays.

The subject of data set [4] is P. aeruginosa K407 (pvd-, pFr-). Kind of data set: Growth recovery assay, P. aeruginosa (pfeA-). Type of data set: cell-based, Pseudomonas aeruginosa. The conditions noted are these: 600 μM DP; for growth inhibition of P. aeruginosa (pfeA-): micromolar concentrations. As for the experimental part: as §1, §3
The conditions of data set [5]: three catecholate groups; cited from earlier work.
The subject of a further data set is E. coli H1187 (fepA-). Kind of data set: Growth recovery assay, E. coli (fepA-). Type of data set: cell-based, Escherichia coli. The conditions noted are these: 200 μM DP. As for the experimental part:
as §1, §2

Data set [6] concerns E. coli K-12 JW0576 (fes-). As to the kind of experiment: Growth recovery assay, E. coli (fes-). Type of data set: cell-based, Escherichia coli. The conditions noted are these: 200 μM DP. As for the experimental part:
as §1, §2

Another data set concerns the target Lipocalin-2 (lcn2) (Homo sapiens, UniProt P80188). Conditions: cited from earlier work.
The target of the next data set is FepA (Escherichia coli, UniProt P05825). Conditions: E. coli outer membrane transporter; cited from earlier work.
FepA, sequence (P05825 23-746): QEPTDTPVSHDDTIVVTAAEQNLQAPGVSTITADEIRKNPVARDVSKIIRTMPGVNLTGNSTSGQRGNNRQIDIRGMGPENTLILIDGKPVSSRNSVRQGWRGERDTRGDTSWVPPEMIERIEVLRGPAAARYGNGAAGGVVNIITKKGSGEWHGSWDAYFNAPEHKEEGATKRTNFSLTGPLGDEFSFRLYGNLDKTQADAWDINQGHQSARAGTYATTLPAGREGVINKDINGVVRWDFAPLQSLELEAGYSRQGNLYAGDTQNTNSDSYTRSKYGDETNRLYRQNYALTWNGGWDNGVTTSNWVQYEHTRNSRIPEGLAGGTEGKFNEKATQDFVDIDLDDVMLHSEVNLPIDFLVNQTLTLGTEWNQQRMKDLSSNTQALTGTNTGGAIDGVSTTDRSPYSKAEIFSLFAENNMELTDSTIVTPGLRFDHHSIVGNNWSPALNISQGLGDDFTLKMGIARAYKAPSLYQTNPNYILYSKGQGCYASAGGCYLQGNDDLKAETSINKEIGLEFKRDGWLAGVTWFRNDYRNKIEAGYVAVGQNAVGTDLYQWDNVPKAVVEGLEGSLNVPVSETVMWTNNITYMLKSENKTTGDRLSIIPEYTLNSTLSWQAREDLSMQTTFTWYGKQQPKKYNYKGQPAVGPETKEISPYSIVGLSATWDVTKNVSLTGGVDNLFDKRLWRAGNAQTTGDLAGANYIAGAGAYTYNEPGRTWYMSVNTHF

Lipocalin-2 (lcn2), sequence (P80188 21-198): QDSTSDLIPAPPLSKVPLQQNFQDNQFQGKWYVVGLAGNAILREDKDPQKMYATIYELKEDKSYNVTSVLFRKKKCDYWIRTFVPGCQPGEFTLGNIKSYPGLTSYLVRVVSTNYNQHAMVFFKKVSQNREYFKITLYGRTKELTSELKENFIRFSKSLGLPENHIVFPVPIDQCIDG

For `CC1(C)S[C@@H]2[C@H](NC(=O)[C@H](N)c3ccccc3)C(=O)N2[C@H]1C(=O)O` [Amp, Ampicillin], in data set [1], the “effect on viability of T84 cells (MTT)” value is listed as “did not affect the viability of human cells significantly”.
On the same count and under the same terms, the entry for `O=C(N[C@H]1COC(=O)[C@@H](NC(=O)c2cccc([O-])c2[O-])COC(=O)[C@@H](NC(=O)c2cccc([O-])c2[O-])COC1=O)c1cccc([O-])c1[O-].[Fe+3]` [Ent with pre-loaded Fe] is “did not exhibit this effect”.
With `O=C(N[C@H]1COC(=O)[C@@H](NC(=O)c2cccc(O)c2O)COC(=O)[C@@H](NC(=O)c2cccc(O)c2O)COC1=O)c1cccc(O)c1O` [L-Ent, Enterobactin], in data set [2] (50% MHB, 200 μM DP, 30° C., t=19 h), the “OD600 of E. coli (ent-) culture” value was about 0.2. Also, the “OD600 of P. aeruginosa (pvd-, pch-) culture” value in data set [3] (low-micromolar concentrations, 50% MHB, 600 μM DP, 30° C., t=19 h) is given as about 0.40. In data set [4], the “growth enhancement of P. aeruginosa (pfeA-)” value is reported as “no growth enhancement” and the “growth inhibition of P. aeruginosa (pfeA-)” value is reported as “growth inhibition at micromolar concentrations”. Further, the “Ka for Fe(III) coordination” value in [5] is on record as ~10^49 M^−1. Moreover, the “decrease of percent survival of T84 cells” value in data set [1] (10 μM) is reported as “approximately 30%”.
Consider `CC(C)(C)OC(=O)NCCOCCOCCOCCNC(=O)c1cc(O)c(O)c(C(=O)N[C@H]2COC(=O)[C@@H](NC(=O)c3cccc(O)c3O)COC(=O)[C@@H](NC(=O)c3cccc(O)c3O)COC2=O)c1` [conjugate 29, Tert-butyl(1-(3-(((3S,7S,11S)-7,11-bis(2,3-dihydroxybenzamido)-2,6,10-trioxo-1,5,9-trioxacyclododecan-3-yl)carbamoyl)-4,5-dihydroxyphenyl)-1-oxo-5,8,11-trioxa-2-azatridecan-13-yl)carbamate], for which the “growth restoration of E. coli (fepA-)” value in the data set with E. coli H1187 (fepA-) is reported as “No growth restoration”. Further, the “growth restoration of E. coli (fes-)” value in [6] was “No growth restoration”.
Take `O=C(NCCOCCOCCOCCNC(=O)C1CCCCC1)c1cc(O)c(O)c(C(=O)N[C@H]2COC(=O)[C@@H](NC(=O)c3cccc(O)c3O)COC(=O)[C@@H](NC(=O)c3cccc(O)c3O)COC2=O)c1` [conjugate 30, N^3-((3S,7S,11S)-7,11-Bis(2,3-dihydroxybenzamido)-2,6,10-trioxo-1,5,9-trioxacyclododecan-3-yl)-N^1-(1-cyclohexyl-1-oxo-5,8,11-trioxa-2-azatridecan-13-yl)-4,5-dihydroxyisophthalamide]: in data set [4], the “growth enhancement of P. aeruginosa (pfeA-)” value was “no growth enhancement” and the “growth inhibition of P. aeruginosa (pfeA-)” value is given as “growth inhibition at micromolar concentrations”. Besides, the “growth restoration of E. coli (fepA-)” value in the data set with E. coli H1187 (fepA-) was “No growth restoration”. Moreover, in data set [6], the “growth restoration of E. coli (fes-)” value is on record as “No growth restoration”.
Regarding `O=C(N[C@H]1COC(=O)[C@@H](NC(=O)c2cccc([O-])c2[O-])COC(=O)[C@@H](NC(=O)c2cccc([O-])c2[O-])COC1=O)c1cccc([O-])c1[O-].[Fe+3]` [ferric enterobactin], on Lipocalin-2 (lcn2), the “affinity of lcn2 for ferric enterobactin” value is “low-nanomolar affinity”. At FepA, the “affinity of FepA for ferric enterobactin” value is “sub-nanomolar affinity”.
Consider Vancomycin-PEG-Ent [conjugate 42], for which the “effect on E. coli growth” value in [2] (+DP) is given as “inhibited the growth of E. coli”. Moreover, the “effect on growth of P. aeruginosa (pvd-, pch-)” value in data set [3] (±DP) is “growth inhibitory effect”.
